Where two headings read alike, the source gives them in different places.
Legend:
[1] = target: WRN (BV08), human Werner helicase (Uniprot Q14191, amino acids 517-1235 with L1074F point mutation) (Homo sapiens (Human), UniProt Q14191, L1074F); test: WRN (BV08) ADP-Glo assay; assay type: biochemical; conditions: class symbols A-E, read-out: ADP-Glo_hWRN_IC50
[2] = system: p21 induction in HCT116 cells; test: p21 induction in HCT116 cells; assay type: cell-based; conditions: read-out: P21_EC50
Method in brief: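 EC50 from non-linear curve fit of p21 immunofluorescence (800 nm), with GAPDH (700 nm) read alongside. DMSO and a reference WRN inhibitor served as low and high controls. Cells (2,000/well) got 11 compound concentrations in duplicate for 24 h at 37 °C.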

[3] = HCT116 cells, 24 h compound incubation
[4] = Homo sapiens, HCT-116, 24 h, HCT116 cells, 24 h compound incubation

Sequence of WRN (BV08), human Werner helicase (Uniprot Q14191, amino acids 517-1235 with L1074F point mutation) (Q14191 other isoform, or with tags, fused parts or gaps L1074F (already in the parent)): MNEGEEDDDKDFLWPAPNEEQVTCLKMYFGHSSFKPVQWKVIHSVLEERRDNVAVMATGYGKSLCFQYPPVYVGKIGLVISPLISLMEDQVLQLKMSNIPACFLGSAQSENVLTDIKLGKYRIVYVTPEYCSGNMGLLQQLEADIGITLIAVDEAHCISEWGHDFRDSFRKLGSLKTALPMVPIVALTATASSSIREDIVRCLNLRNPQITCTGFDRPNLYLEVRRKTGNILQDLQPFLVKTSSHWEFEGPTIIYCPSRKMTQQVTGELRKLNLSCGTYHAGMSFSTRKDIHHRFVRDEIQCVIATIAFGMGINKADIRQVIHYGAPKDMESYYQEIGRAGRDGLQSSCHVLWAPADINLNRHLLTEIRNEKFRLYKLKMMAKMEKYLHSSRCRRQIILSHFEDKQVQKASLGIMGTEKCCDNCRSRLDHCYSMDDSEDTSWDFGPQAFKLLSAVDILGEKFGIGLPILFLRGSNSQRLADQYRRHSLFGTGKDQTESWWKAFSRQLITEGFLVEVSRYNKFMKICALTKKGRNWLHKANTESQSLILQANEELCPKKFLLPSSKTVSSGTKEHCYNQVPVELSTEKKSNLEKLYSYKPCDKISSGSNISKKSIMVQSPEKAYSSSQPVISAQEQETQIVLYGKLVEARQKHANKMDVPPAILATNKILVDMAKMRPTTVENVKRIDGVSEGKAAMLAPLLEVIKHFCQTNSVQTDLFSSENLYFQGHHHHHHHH

Compound | IC50 [1] [nM] | EC50 [2, 3] [nM] | EC50 [2, 4] [nM] | EC50 ([2]; Homo sapiens, HCT-116, 24 h) [nM]
CCc1c(N2CCN(C(=O)c3ncnc(C)c3O)[C@@H]3CC[C@H]32)c(=O)c2nc(N(C)C3CC3)cnc2n1CC(=O)Nc1ccc(C(F)(F)F)cc1Cl (single isomer, unassigned) [I-169, N-[2-chloro-4-(trifluoromethyl)phenyl]-2-{2-[cyclopropyl(methyl)amino]-6-ethyl-7-[-5-(5-hydroxy-6-methylpyrimidine-4-carbonyl)-2,5-diazabicyclo[4.2.0]octan-2-yl]-8-oxo-5H,8H-pyrido[2,3-b]pyrazin-5-yl}acetamide] | 5 to 50 | 500 to 2000 |  | 
CCc1c(N2CCN(C(=O)c3ncnc(C)c3O)C[C@@H]2C)c(=O)c2nc(N(C)C)cnc2n1CC(=O)Nc1ccc(S(F)(F)(F)(F)F)cc1Cl [I-185, N-[2-chloro-4-(pentafluoro-lambda6-sulfanyl)phenyl]-2-[2-(dimethylamino)-6-ethyl-7-[(2S)-4-(5-hydroxy-6-methylpyrimidine-4-carbonyl)-2-methylpiperazin-1-yl]-8-oxo-5H,8H-pyrido[2,3-b]pyrazin-5-yl]acetamide] | 5 to 50 |  | < 500 | 
CCc1c(N2CCN(C(=O)c3ncnc(C)c3O)CC2)c(=O)c2nc(OC3CC3)cnc2n1CC(=O)Nc1ccc(C(F)(F)F)cc1Cl [I-195, N-[2-chloro-4-(trifluoromethyl)phenyl]-2-{2-cyclopropoxy-6-ethyl-7-[4-(5-hydroxy-6-methylpyrimidine-4-carbonyl)piperazin-1-yl]-8-oxo-5H,8H-pyrido[2,3-b]pyrazin-5-yl}acetamide] | 5 to 50 |  | 2000 to 5000 | 
CCc1c(N2CCN(C(=O)c3ncnc(C)c3O)CC2)c(=O)c2nc(C3(C#N)CC3)cnc2n1CC(=O)Nc1ccc(C(F)(F)F)cc1Cl [I-254, N-[2-chloro-4-(trifluoromethyl)phenyl]-2-[2-(1-cyanocyclopropyl)-6-ethyl-7-[4-(5-hydroxy-6-methylpyrimidine-4-carbonyl)piperazin-1-yl]-8-oxo-5H,8H-pyrido[2,3-b]pyrazin-5-yl]acetamide] | 5 to 50 |  | 500 to 2000 | 
CCc1c(N2CCN(C(=O)c3ncnc(C)c3O)CC2)c(=O)c2nc(N3CCC(F)(F)C3)cnc2n1CC(=O)Nc1ccc(C(F)(F)F)cc1Cl [I-177, N-[2-chloro-4-(trifluoromethyl)phenyl]-2-[2-(3,3-difluoropyrrolidin-1-yl)-6-ethyl-7-[4-(5-hydroxy-6-methylpyrimidine-4-carbonyl)piperazin-1-yl]-8-oxo-5H,8H-pyrido[2,3-b]pyrazin-5-yl]acetamide] | 5 to 50 |  | > 5000 | 
CCc1c(N2CCN(C(=O)c3c(OC)ncc(C)c3O)C[C@@H]2C)c(=O)c2nc(N3CC[C@H]4C[C@H]43)cnc2n1CC(=O)Nc1ccc(C(F)(F)F)cc1Cl (single isomer, unassigned) [I-231] | 5 to 50 |  | < 500 | 
CCc1c(N2CCN(C(=O)c3ncnc(C)c3O)CC2)c(=O)c2nc(N3CC(OC)C3)cnc2n1CC(=O)Nc1ccc(C(F)(F)F)cc1Cl [I-66, N-(2-chloro-4-(trifluoromethyl)phenyl)-2-(6-ethyl-7-(4-(5-hydroxy-6-methylpyrimidine-4-carbonyl)piperazin-1-yl)-2-(3-methoxyazetidin-1-yl)-8-oxopyrido[2,3-b]pyrazin-5(8H)-yl)acetamide] | 5 to 50 |  | 2000 to 5000 | 
CCc1c(N2CCN(C(=O)c3ncnc(C)c3O)CC2)c(=O)c2nc(N(C)C3CC3)cnc2n1CC(=O)Nc1ccc(C(F)(F)F)cc1Cl [I-58, N-(2-chloro-4-(trifluoromethyl)phenyl)-2-(2-(cyclopropyl(methyl)amino)-6-ethyl-7-(4-(5-hydroxy-6-methylpyrimidine-4-carbonyl)piperazin-1-yl)-8-oxopyrido[2,3-b]pyrazin-5(8H)-yl)acetamide] | 5 to 50 |  | < 500 | 
CCc1c(N2CCN(C(=O)c3ncnc(C)c3O)CC2)c(=O)c2nc(C3CCC3)cnc2n1CC(=O)Nc1ccc(C(F)(F)F)cc1Cl [I-223, N-[2-chloro-4-(trifluoromethyl)phenyl]-2-{2-cyclobutyl-6-ethyl-7-[4-(5-hydroxy-6-methylpyrimidine-4-carbonyl)piperazin-1-yl]-8-oxo-5H,8H-pyrido[2,3-b]pyrazin-5-yl} acetamide] | 5 to 50 |  | 500 to 2000 | 
CCc1c(N2CCN(C(=O)c3ncnc(C)c3O)CC2)c(=O)c2nc(N(C)S(C)(=O)=O)cnc2n1CC(=O)Nc1ccc(C(F)(F)F)cc1Cl [I-217, N-[2-chloro-4-(trifluoromethyl)phenyl]-2-{6-ethyl-7-[4-(5-hydroxy-6-methylpyrimidine-4-carbonyl)piperazin-1-yl]-2-(N-methylmethanesulfonamido)-8-oxo-5H,8H-pyrido[2,3-b]pyrazin-5-yl}acetamide] | 100 to 500 |  | > 5000 | 
CCc1c(N2CCN(C(=O)c3ncnc(C)c3O)C[C@@H]2C)c(=O)c2nc(N3CCC3)cnc2n1CC(=O)Nc1ccc(S(F)(F)(F)(F)F)cc1Cl [I-190, 2-[2-(azetidin-1-yl)-6-ethyl-7-[(2S)-4-(5-hydroxy-6-methylpyrimidine-4-carbonyl)-2-methylpiperazin-1-yl]-8-oxo-5H,8H-pyrido[2,3-b]pyrazin-5-yl]-N-[2-chloro-4-(pentafluoro-lambda6-sulfanyl)phenyl]acetamide] | 5 to 50 |  | < 500 | 
CCc1c(N2CCN(C(=O)c3ncnc(C)c3O)CC2)c(=O)c2nc(N3CCC34COC4)cnc2n1CC(=O)Nc1ccc(C(F)(F)F)cc1Cl [I-207, N-[2-chloro-4-(trifluoromethyl)phenyl]-2-{6-ethyl-7-[4-(5-hydroxy-6-methylpyrimidine-4-carbonyl)piperazin-1-yl]-2-{6-oxa-1-azaspiro[3.3]heptan-1-yl}-8-oxo-5H,8H-pyrido[2,3-b]pyrazin-5-yl}acetamide] | 5 to 50 |  | 2000 to 5000 | 
C=C(C)c1nc2c(=O)c(N3CCN(C(=O)c4ncnc(C)c4O)CC3)c(CC)n(CC(=O)Nc3ccc(C(F)(F)F)cc3Cl)c2nc1C [I-23, N-(2-chloro-4-(trifluoromethyl)phenyl)-2-(6-ethyl-7-(4-(5-hydroxy-6-methylpyrimidine-4-carbonyl)piperazin-1-yl)-3-methyl-8-oxo-2-(prop-1-en-2-yl)pyrido[2,3-b]pyrazin-5(8H)-yl)acetamide] | 5 to 50 |  |  | 500 to 2000
CCO/C=C/c1cnc2c(n1)c(=O)c(N1CCN(C(=O)c3ncnc(C)c3O)[C@H]3CC[C@@H]31)c(CC)n2CC(=O)Nc1ccc(C(F)(F)F)cc1Cl (racemic) [I-136, rac-N-[2-chloro-4-(trifluoromethyl)phenyl]-2-{2-[(1E)-2-ethoxyethenyl]-6-ethyl-7-[-5-(5-hydroxy-6-methylpyrimidine-4-carbonyl)-2,5-diazabicyclo[4.2.0]octan-2-yl]-8-oxo-5H,8H-pyrido[2,3-b]pyrazin-5-yl}acetamide] | 5 to 50 |  | < 500 | 
CCc1c(N2CCN(C(=O)c3ncnc(C)c3O)CC2)c(=O)c2nc3c(nc2n1CC(=O)Nc1ccc(C(F)(F)F)cc1Cl)CCN3C [I-116, N-(2-chloro-4-(trifluoromethyl)phenyl)-2-(6-ethyl-7-(4-(5-hydroxy-6-methylpyrimidine-4-carbonyl)piperazin-1-yl)-1-methyl-8-oxo-1,2,3,8-tetrahydro-5H-pyrido[2,3-b]pyrrolo[2,3-e]pyrazin-5-yl)acetamide] | 5 to 50 |  | 500 to 2000 | 
CCc1c(N2CCN(C(=O)c3ncnc(C)c3O)[C@H]3CC[C@@H]32)c(=O)c2nc(N(C)C[C@H](C)OC)cnc2n1CC(=O)Nc1ccc(C(F)(F)F)cc1Cl [I-269, N-[2-chloro-4-(trifluoromethyl)phenyl]-2-{6-ethyl-7-[(1S,6S)-5-(5-hydroxy-6-methylpyrimidine-4-carbonyl)-2,5-diazabicyclo[4.2.0]octan-2-yl]-2-{[(2S)-2-methoxypropyl](methyl)amino}-8-oxo-5H,8H-pyrido[2,3-b]pyrazin-5-yl}acetamide] | 5 to 50 |  | < 500 | 
CCc1c(N2CCN(C(=O)c3ccc4cn[nH]c4c3O)CC2)c(=O)c2ncc(C)nc2n1CC(=O)Nc1ccc(C(F)(F)F)cc1Cl [I-33, N-(2-chloro-4-(trifluoromethyl)phenyl)-2-(6-ethyl-7-(4-(7-hydroxy-1H-indazole-6-carbonyl)piperazin-1-yl)-3-methyl-8-oxopyrido[2,3-b]pyrazin-5(8H)-yl)acetamide] | 5 to 50 |  | > 5000 | 
CCc1c(N2CCN(C(=O)c3ncnc(C)c3O)CC2)c(=O)c2ncc(Cl)nc2n1CC(=O)Nc1ccc(C(F)(F)F)cc1Cl [I-43, N-(2-chloro-4-(trifluoromethyl)phenyl)-2-(3-chloro-6-ethyl-7-(4-(5-hydroxy-6-methylpyrimidine-4-carbonyl)piperazin-1-yl)-8-oxopyrido[2,3-b]pyrazin-5(8H)-yl)acetamide] | 100 to 500 |  | > 5000 | 
CCc1c(N2CCN(C(=O)c3ncnc(C)c3O)C3COCC32)c(=O)c2nc(N(C)C)cnc2n1CC(=O)Nc1ccc(C(F)(F)F)cc1Cl (single isomer, unassigned) [I-294, N-(2-chloro-4-(trifluoromethyl)phenyl)-2-(2-(dimethylamino)-6-ethyl-7-(4-(5-hydroxy-6-methylpyrimidine-4-carbonyl)hexahydrofuro[3,4-b]pyrazin-1(2H)-yl)-8-oxopyrido[2,3-b]pyrazin-5(8H)-yl)acetamide] | > 500 | > 5000 |  | 
CCc1c(N2CCN(C(=O)c3ncnc(C)c3O)CC2)c(=O)c2nc(C)cnc2n1CC(=O)Nc1ccc(C(F)(F)F)cc1Cl [I-80, N-(2-chloro-4-(trifluoromethyl)phenyl)-2-(6-ethyl-7-(4-(5-hydroxy-6-methylpyrimidine-4-carbonyl)piperazin-1-yl)-2-methyl-8-oxopyrido[2,3-b]pyrazin-5(8H)-yl)acetamide] | 5 to 50 |  | > 5000 | 

— patent US20250034136A1 (Nimbus Wadjet, Inc., priority 2023, published 2025)
